{"source": "patent US4226775A", "about": "“Substituted thio-substituted benzyl-propionyl-L-prolines” (American Cyanamid Company, priority 1979, dated 1980)", "data": [{"target": "T1, angiotensin converting enzyme (ACE) (Oryctolagus cuniculus, UniProt P12822)", "T1 construct": "The ACE was extracted from rabbit lung acetane powder (Pel-Freez, Biol. Inc.); tissue Pel-Freez, Biol. Inc; host or cells: rabbit lung acetone powder, crude extract (40,000 g supernatant)", "T1 sequence (P12822 34-1310)": "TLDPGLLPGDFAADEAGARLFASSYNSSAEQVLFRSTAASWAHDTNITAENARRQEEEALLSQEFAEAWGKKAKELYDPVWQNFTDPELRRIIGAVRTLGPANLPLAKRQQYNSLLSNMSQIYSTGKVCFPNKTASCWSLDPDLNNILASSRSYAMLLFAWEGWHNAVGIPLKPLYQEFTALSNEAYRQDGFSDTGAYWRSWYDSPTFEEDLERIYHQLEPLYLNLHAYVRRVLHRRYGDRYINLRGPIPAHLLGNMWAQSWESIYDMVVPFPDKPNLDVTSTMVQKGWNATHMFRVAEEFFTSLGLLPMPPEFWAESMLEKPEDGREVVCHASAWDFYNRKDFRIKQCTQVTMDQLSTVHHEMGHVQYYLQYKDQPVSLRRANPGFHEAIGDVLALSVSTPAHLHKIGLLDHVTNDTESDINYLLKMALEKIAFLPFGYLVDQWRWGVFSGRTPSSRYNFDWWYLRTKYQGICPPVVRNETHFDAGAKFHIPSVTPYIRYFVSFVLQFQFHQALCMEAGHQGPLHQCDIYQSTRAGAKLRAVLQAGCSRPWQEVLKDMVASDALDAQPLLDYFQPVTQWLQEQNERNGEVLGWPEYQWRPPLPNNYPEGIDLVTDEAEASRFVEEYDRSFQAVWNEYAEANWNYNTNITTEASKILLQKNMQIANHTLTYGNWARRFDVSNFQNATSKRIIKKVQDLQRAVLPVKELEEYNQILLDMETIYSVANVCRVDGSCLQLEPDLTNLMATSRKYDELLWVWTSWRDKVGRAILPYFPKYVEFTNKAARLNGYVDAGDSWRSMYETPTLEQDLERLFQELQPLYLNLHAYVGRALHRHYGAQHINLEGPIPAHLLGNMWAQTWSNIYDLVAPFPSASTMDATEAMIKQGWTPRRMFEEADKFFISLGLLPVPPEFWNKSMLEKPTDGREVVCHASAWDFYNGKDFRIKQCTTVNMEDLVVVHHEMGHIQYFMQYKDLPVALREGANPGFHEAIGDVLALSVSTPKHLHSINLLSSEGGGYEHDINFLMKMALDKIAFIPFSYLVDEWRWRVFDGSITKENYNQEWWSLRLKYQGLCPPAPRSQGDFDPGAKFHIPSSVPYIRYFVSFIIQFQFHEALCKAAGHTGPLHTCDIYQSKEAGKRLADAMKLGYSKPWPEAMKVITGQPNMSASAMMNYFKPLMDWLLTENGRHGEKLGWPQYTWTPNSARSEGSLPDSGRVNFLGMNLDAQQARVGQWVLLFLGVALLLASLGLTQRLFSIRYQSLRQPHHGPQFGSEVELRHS", "test": "Spectrophotometric assay for angiotensin converting enzyme inhibitors", "format": "biochemical", "conditions": "crude ACE extract from rabbit lung; substrate benzoyl-glycyl-histidyl-leucine; 30 minutes at 37° C.; absorbance at 228 nm", "method": "The activity of the novel compounds of this invention as hypotensive agents was established in two systems which measure their ability as angiotensin converting enzyme inhibitors; namely, a spectrophotometric assay of the compounds in vitro and by the measurement of the blood pressure lowering effect of the compounds in the aorta-coarcted renal hypertensive rats.\nThe in vitro activity for inhibition of the angiotensin converting enzyme (ACE) was measured by the method of Cushman, D. W. and Cheung, H. S., Biochem. Pharmacol. 20, 1637-1648 (1971), using benzoyl-glycyl-histidyl-leucine as the substrate. The reaction mixture consisted of 50 ml. of potassium phosphate (500 mM., […]), […]. of sodium chloride (2500 mM.), 25 ml. of substrate (50 mM), 30 to 50 ml. of the crude extract of ACE, 10 ml. of test compound (2.5 mM) or vehicle and a suitable amount of distilled water to give a total volume of 250 ml. This reaction mixture was incubated for 30 minutes at 37° C. and the reaction was then terminated by the addition of 250 ml. of 1 N hydrochloric acid. The hippuric acid was then extracted with 1.5 ml. of ethyl acetate by vortex mixing for 15 seconds. After centrifugation, 1 ml. of the ethyl acetate layer was pipetted into a new tube and evaporated to dryness. The extracted hippuric acid was then dissolved in 1 ml. of water and the amount of this acid was then measured by its absorbance at 228 nm. The ACE was extracted from rabbit lung acetane powder (Pel-Freez, Biol. Inc.) by blending 5 g. of the powder in 50 ml. of phosphate buffer (50 mM, pH 8.3) and then centrifuging at 40,000 g for 30 minutes. The supernatant was then kept at 5° C. and used as the enzyme source. The activity of the ACE inhibitor was calculated as the percent inhibition of ACE activity compared to the control value of that particular assay. A full dose-response inhibitory curve is then performed to determine the IC50 value which may be defined as the molar concentration of a compound that will inhibit the ACE activity by 50%.", "units": {"IC50": "nM"}, "values": [{"smiles": "CC(=O)SC(CC(=O)N1CCC[C@H]1C(=O)O)C(=O)c1ccc(-c2ccccc2)cc1", "note": "(stereo partly drawn) [1-[3-Acetylthio-3-(4-biphenylylcarbonyl)propionyl]-L-proline]", "IC50": 86}, {"smiles": "CC(=O)SC(CC(=O)N1CCC[C@H]1C(=O)O)C(=O)c1ccc2c(c1)CCC2", "note": "(stereo partly drawn) [1-[3-acetylthio-3-(5-indanylcarbonyl)propionyl]-L-proline]", "IC50": 218}, {"smiles": "CC(=O)SC(CC(=O)N1CCC[C@H]1C(=O)O)C(=O)c1cccc(C(F)(F)F)c1", "note": "(stereo partly drawn) [1-[3-Acetylthio-3-(3-trifluoromethylbenzoyl)propionyl]-L-proline]", "IC50": 1070}, {"smiles": "O=C(SC(CC(=O)N1CCC[C@H]1C(=O)O)C(=O)c1ccc(Br)cc1)c1ccccc1", "note": "(stereo partly drawn) [1-[3-(4-Bromobenzoyl)-3-benzoylthiopropionyl]-L-proline]", "IC50": 115}, {"smiles": "O=C(c1cnc(SC(CC(=O)N2CCC[C@H]2C(=O)O)C(=O)c2ccc(Cl)cc2)nc1)c1cccs1", "note": "(stereo partly drawn) [1-[3-(4-Chlorobenzoyl)-3-[5-(2-thenoyl)-2-pyrimidinylthio]propionyl]-L-proline]", "IC50": 5130}, {"smiles": "CC(=O)S[C@H](C(=O)c1cccc(F)c1)[C@@H](C)C(=O)N1CCC[C@H]1C(=O)O", "note": "[[S-(R*,R*)]-1-[3-acetylthio-3-(3-fluorobenzoyl)-2-methylpropionyl]-L-proline]", "IC50": 233}, {"smiles": "CC(=O)SC(C(=O)c1cccc(F)c1)C(C)C(=O)N1CCC[C@H]1C(=O)O", "note": "(stereo partly drawn) [1-[3-Acetylthio-3-(3-fluorobenzoyl)-2-methylpropionyl]-L-proline]", "IC50": 61.7}, {"smiles": "CC(=O)S[C@@H](C(=O)c1cccc(F)c1)[C@@H](C)C(=O)N1CCC[C@H]1C(=O)O", "note": "[[S-(R*,S*)]-1-[3-acetylthio-3-(3-fluorobenzoyl)-2-methylpropionyl]-L-proline]", "IC50": 37}, {"smiles": "O=C(SC(CC(=O)N1CCC[C@H]1C(=O)O)C(=O)c1ccc(F)cc1)c1ccccc1", "note": "(stereo partly drawn) [1-[3-Benzoylthio-3-(4-fluorobenzoyl)propionyl]-L-proline]", "IC50": 353}, {"smiles": "CC(=O)SC(CC(=O)N1CCC[C@H]1C(=O)O)C(=O)c1ccc(C(C)(C)C)cc1", "note": "(stereo partly drawn) [1-[3-Acetylthio-3-(4-tert-butylbenzoyl)propionyl]-L-proline]", "IC50": 183}, {"smiles": "O=C(SC(CC(=O)N1CCC[C@H]1C(=O)O)C(=O)c1cccc(F)c1)c1ccccc1", "note": "(stereo partly drawn) [1-[3-Benzoylthio-3-(3-fluorobenzoyl)propionyl]-L-proline]", "IC50": 1760}, {"smiles": "CC(=O)SC(C(=O)c1ccc(Cl)cc1)C(C)C(=O)N1CCC[C@H]1C(=O)O", "note": "(stereo partly drawn) [1-[3-Acetylthio-3-(4-chlorobenzoyl)-2-methylpropionyl]-L-proline]", "IC50": 335}, {"smiles": "CC(=O)SC(CC(=O)N1CCC[C@H]1C(=O)O)C(=O)c1ccccc1", "note": "(stereo partly drawn) [1-(3-Acetylthio-3-benzoylpropionyl)-L-proline]", "IC50": 455}, {"smiles": "CC(=O)SC(CC(=O)N1CCC[C@H]1C(=O)O)C(=O)c1ccc(Oc2ccc(Cl)cc2)cc1", "note": "(stereo partly drawn) [1-{3-Acetylthio-3-[4-(4-chlorophenoxy)benzoyl]-propionyl}-L-proline]", "IC50": 358}, {"smiles": "CC(=O)SC(CC(=O)N1CCC[C@H]1C(=O)O)C(=O)c1ccc2ccccc2c1", "note": "(stereo partly drawn) [1-[3-Acetylthio-3-(2-naphthoyl)propionyl]-L-proline]", "IC50": 130}, {"smiles": "CC(=O)SC(CC(=O)c1ccccc1)C(=O)N1CCC[C@H]1C(=O)O", "note": "(stereo partly drawn) [1-(2-Acetylthio-3-benzoylpropionyl)-L-proline]", "IC50": 4230}, {"smiles": "CC(=O)SC(CC(=O)N1CCC[C@H]1C(=O)O)C(=O)c1ccc(Cl)cc1", "note": "(stereo partly drawn) [1-[3-Acetylthio-3-(4-chlorobenzoyl)propionyl]-L-proline]", "IC50": 82.6}, {"smiles": "CC(=O)S[C@H](C(=O)c1ccccc1)[C@@H](C)C(=O)N1CCC[C@H]1C(=O)O", "note": "[[S-(R*,R*)]-1-(3-acetylthio-3-benzoyl-2-methylpropionyl)-L-proline]", "IC50": 78}, {"smiles": "CC(=O)S[C@@H](C(=O)c1ccc(Br)cc1)[C@@H](C)C(=O)N1CCC[C@H]1C(=O)O", "note": "[[S-(R*,S*)]-1-[3-acetylthio-3-(4-bromobenzoyl)-2-methylpropionyl]-L-proline]", "IC50": 98.5}, {"smiles": "O=C(c1ccc(Br)cc1)C(S)CC(=O)N1CCC[C@H]1C(=O)O", "note": "(stereo partly drawn) [1-[3-(4-Bromobenzoyl)-3-thiopropionyl]-L-proline]", "IC50": 352}, {"smiles": "CC(=O)SC(C(=O)c1ccccc1)C(C)C(=O)N1CCC[C@H]1C(=O)O", "note": "(stereo partly drawn) [1-(3-Acetylthio-3-benzoyl-2-methylpropionyl)-L-proline]", "IC50": 147}, {"smiles": "CC(=O)SC(CC(=O)N1CCC[C@H]1C(=O)O)C(=O)c1ccc(Br)cc1", "note": "(stereo partly drawn) [1-[3-Acetylthio-3-(4-bromobenzoyl)propionyl]-L-proline]", "IC50": 131}, {"smiles": "CC(=O)S[C@H](C(=O)c1ccc(Br)cc1)[C@@H](C)C(=O)N1CCC[C@H]1C(=O)O", "note": "[[S-(R*,R*)]-1-[3-acetylthio-3-(4-bromobenzoyl)-2-methylpropionyl]-L-proline]", "IC50": 133}, {"smiles": "COc1ccc(C(=O)C(CC(=O)N2CCC[C@H]2C(=O)O)SC(C)=O)cc1F", "note": "(stereo partly drawn) [1-[3-Acetylthio-3-(3-fluoro-4-methoxybenzoyl)propionyl]-L-proline]", "IC50": 600}, {"smiles": "CC(=O)S[C@H](C(=O)c1cccc(F)c1)[C@H](C)C(=O)N1CCC[C@H]1C(=O)O", "note": "[[R-(R*,S*)]-1-[3-acetylthio-3-(3-fluorobenzoyl)-2-methylpropionyl]-L-proline]", "IC50": 280000}, {"smiles": "O=C(SC(CC(=O)N1CCC[C@H]1C(=O)O)C(=O)c1ccccc1)c1ccccc1", "note": "(stereo partly drawn) [1-(3-Benzoylthio-3-benzoylpropionyl)-L-proline]", "IC50": 513}, {"smiles": "CC(=O)S[C@@H](C(=O)c1ccccc1)[C@@H](C)C(=O)N1CCC[C@H]1C(=O)O", "note": "[[S-(R*,S*)]-1-(3-Acetylthio-3-benzoyl-2-methylpropionyl)-L-proline]", "IC50": 51.5}, {"smiles": "CC(=O)SC(CC(=O)N1CCC[C@H]1C(=O)O)C(=O)c1ccc(F)cc1", "note": "(stereo partly drawn) [1-[3-Acetylthio-3-(4-fluorobenzoyl)propionyl]-L-proline]", "IC50": 473}, {"smiles": "O=C(O)CSC(CC(=O)c1ccccc1)C(=O)N1CCC[C@H]1C(=O)O", "note": "(stereo partly drawn) [1-[3-Benzoyl-2-(carboxymethylthio)propionyl]-L-proline]", "IC50": 31600}, {"smiles": "O=C(c1ccccc1)c1cnc(SC(CC(=O)N2CCC[C@H]2C(=O)O)C(=O)c2ccc(Cl)cc2)nc1", "note": "(stereo partly drawn) [1-[3-(5-Benzoyl-2-pyrimidinylthio)-3-(4-chlorobenzoyl)propionyl]-L-proline]", "IC50": 2780}, {"smiles": "CC(=O)S[C@@H](C(=O)c1cccc(F)c1)[C@H](C)C(=O)N1CCC[C@H]1C(=O)O", "note": "[[R-(R*,R*)]-1-[3-acetylthio-3-(3-fluorobenzoyl)-2-methylpropionyl]-L-proline]", "IC50": 16000}, {"smiles": "CC(=O)SC(CC(=O)N1CCC[C@H]1C(=O)O)C(=O)c1cccc(F)c1", "note": "(stereo partly drawn) [1-[3-Acetylthio-3-(3-fluorobenzoyl)propionyl]-L-proline]", "IC50": 31.6}]}]}
